According to PubChem BioAssay (NCI):
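Results reflect a 48-hour exposure of cells in 96-well plates to compound at five concentrations. GI50 marks 50% less growth. TGI: total growth inhibition.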

Assays:
Assay in all cases: NCI-60 cell line screen, 48 h
SF-268 CNS = system: SF-268 CNS
EKVX NSCLC = system: EKVX NSCLC
MDA-MB-435 = system: MDA-MB-435
T-47D breast = system: T-47D breast
OVCAR-3 ovarian = system: OVCAR-3 ovarian
MALME-3M melanoma = system: MALME-3M melanoma
SR leukemia = system: SR leukemia
HS 578T breast = system: HS 578T breast
UACC-257 melanoma = system: UACC-257 melanoma
CAKI-1 renal = system: CAKI-1 renal
NCI/ADR-RES ovarian = system: NCI/ADR-RES ovarian
MCF7 breast = system: MCF7 breast
HCT-116 colon = system: HCT-116 colon
NCI-H226 lung = system: NCI-H226 lung
HCT-15 colon = system: HCT-15 colon
A498 renal = system: A498 renal
COLO 205 colon = system: COLO 205 colon
HL-60(TB) leukemia = system: HL-60(TB) leukemia
SK-MEL-28 melanoma = system: SK-MEL-28 melanoma
SNB-19 CNS = system: SNB-19 CNS
NCI-H23 lung = system: NCI-H23 lung
U251 CNS = system: U251 CNS
HOP-92 NSCLC = system: HOP-92 NSCLC
SK-MEL-5 melanoma = system: SK-MEL-5 melanoma
TK-10 renal = system: TK-10 renal
SK-OV-3 ovarian = system: SK-OV-3 ovarian
NCI-H522 lung = system: NCI-H522 lung
IGROV1 ovarian = system: IGROV1 ovarian
SF-295 CNS = system: SF-295 CNS
RPMI-8226 leukemia = system: RPMI-8226 leukemia
786-0 renal = system: 786-0 renal
OVCAR-4 ovarian = system: OVCAR-4 ovarian
HT29 colon = system: HT29 colon
SF-539 CNS = system: SF-539 CNS
BT-549 breast = system: BT-549 breast
UO-31 renal = system: UO-31 renal
HCC-2998 colon = system: HCC-2998 colon
OVCAR-5 ovarian = system: OVCAR-5 ovarian
A549 NSCLC = system: A549 NSCLC
SN12C renal = system: SN12C renal
MDA-MB-231 breast = system: MDA-MB-231 breast
HOP-62 NSCLC = system: HOP-62 NSCLC
LOX IMVI melanoma = system: LOX IMVI melanoma
M14 melanoma = system: M14 melanoma
UACC-62 melanoma = system: UACC-62 melanoma
MOLT-4 leukemia = system: MOLT-4 leukemia
OVCAR-8 ovarian = system: OVCAR-8 ovarian
CCRF-CEM leukemia = system: CCRF-CEM leukemia
SNB-75 CNS = system: SNB-75 CNS
NCI-H460 lung = system: NCI-H460 lung
RXF 393 renal = system: RXF 393 renal
SW-620 colon = system: SW-620 colon
KM12 colon = system: KM12 colon
ACHN renal = system: ACHN renal
SK-MEL-2 melanoma = system: SK-MEL-2 melanoma
DU-145 prostate = system: DU-145 prostate
K-562 leukemia = system: K-562 leukemia

## Cc1cc(C)c2nc3nc(C)cc(C)c3c(N)c2c1
SF-268 CNS
  GI50: 5.38 µM
  TGI: 21.6 µM
EKVX NSCLC
  GI50: 4.76 µM
  TGI: 43 µM
MDA-MB-435
  GI50: 3.53 µM
  TGI: 16.6 µM
T-47D breast
  GI50: 5.89 µM
  TGI: 34.2 µM
OVCAR-3 ovarian
  GI50: 9.04 µM
  TGI: 39.9 µM
MALME-3M melanoma
  GI50: 4.19 µM
  TGI: 16.6 µM
SR leukemia
  GI50: 2.47 µM
  TGI: 13.3 µM
HS 578T breast
  GI50: 12.7 µM
  TGI: 45.2 µM
UACC-257 melanoma
  GI50: 5.71 µM
  TGI: 29.8 µM
CAKI-1 renal
  GI50: 1.83 µM
  TGI: 6.12 µM
NCI/ADR-RES ovarian
  GI50: 6.88 µM
  TGI: 36.9 µM
MCF7 breast
  GI50: 3.54 µM
  TGI: 16.7 µM
HCT-116 colon
  GI50: 3.12 µM
  TGI: 15 µM
NCI-H226 lung
  GI50: 5.4 µM
  TGI: 24.7 µM
HCT-15 colon
  GI50: 3.96 µM
  TGI: 22.5 µM
A498 renal
  GI50: 4.67 µM
  TGI: 17.8 µM
COLO 205 colon
  GI50: 2.78 µM
  TGI: 11.8 µM
HL-60(TB) leukemia
  GI50: 2.74 µM
  TGI: 12.9 µM
SK-MEL-28 melanoma
  GI50: 12.6 µM
  TGI: 27 µM
SNB-19 CNS
  GI50: 8.51 µM
  TGI: 35.9 µM
NCI-H23 lung
  GI50: 5.29 µM
  TGI: 21.4 µM
U251 CNS
  GI50: 4.3 µM
  TGI: 26.1 µM
HOP-92 NSCLC
  GI50: 3.23 µM
  TGI: 19.7 µM
SK-MEL-5 melanoma
  GI50: 3.73 µM
  TGI: 14.2 µM
TK-10 renal
  GI50: 3.34 µM
  TGI: 19.1 µM
SK-OV-3 ovarian
  GI50: 4.1 µM
  TGI: 23.5 µM
NCI-H522 lung
  GI50: 5.46 µM
  TGI: 22.6 µM
IGROV1 ovarian
  GI50: 3.64 µM
  TGI: 28.2 µM
SF-295 CNS
  GI50: 2.4 µM
  TGI: 12 µM
RPMI-8226 leukemia
  GI50: 4.55 µM
  TGI: 24.8 µM
786-0 renal
  GI50: 4.07 µM
  TGI: 17.4 µM
OVCAR-4 ovarian
  GI50: 3.63 µM
  TGI: 19.8 µM
HT29 colon
  GI50: 2.49 µM
  TGI: 13.6 µM
SF-539 CNS
  GI50: 4.15 µM
  TGI: 14.6 µM
BT-549 breast
  GI50: 11 µM
  TGI: 31.7 µM
UO-31 renal
  GI50: 2.9 µM
  TGI: 16 µM
HCC-2998 colon
  GI50: 9.61 µM
  TGI: 22.5 µM
OVCAR-5 ovarian
  GI50: 4.3 µM
  TGI: 29.5 µM
A549 NSCLC
  GI50: 4.34 µM
  TGI: > 100 µM
SN12C renal
  GI50: 4.37 µM
  TGI: 36.2 µM
MDA-MB-231 breast
  GI50: 5.17 µM
  TGI: 28.6 µM
HOP-62 NSCLC
  GI50: 5.26 µM
  TGI: 25.7 µM
LOX IMVI melanoma
  GI50: 3.51 µM
  TGI: 14.9 µM
M14 melanoma
  GI50: 4.53 µM
  TGI: 16.1 µM
UACC-62 melanoma
  GI50: 4.83 µM
  TGI: 18.9 µM
MOLT-4 leukemia
  GI50: 4.7 µM
  TGI: 26.6 µM
OVCAR-8 ovarian
  GI50: 4.02 µM
  TGI: > 100 µM
CCRF-CEM leukemia
  GI50: 9.33 µM
  TGI: 45.7 µM
SNB-75 CNS
  GI50: 4.86 µM
  TGI: 18.3 µM
NCI-H460 lung
  GI50: 3.15 µM
  TGI: 11 µM
RXF 393 renal
  GI50: 6.64 µM
  TGI: 27.5 µM
SW-620 colon
  GI50: 3.4 µM
  TGI: 21.4 µM
KM12 colon
  GI50: 5.52 µM
  TGI: 24 µM
ACHN renal
  GI50: 3.29 µM
  TGI: 49.4 µM
SK-MEL-2 melanoma
  GI50: 6.89 µM
  TGI: 21.7 µM
DU-145 prostate
  GI50: 4.72 µM
  TGI: 17.9 µM
K-562 leukemia
  GI50: 3.45 µM
  TGI: 15.9 µM
